The target in series [1] is T1, Xanthine dehydrogenase/oxidase (Bos taurus, UniProt P80457). The series can be described thus: Inhibition of bovine xanthine oxidase assessed as reduction in uric acid production using xanthine as substrate preincubated for 10 mins followed by substrate addition by spectrophotometric analysis.
For series [2], the target named is T1, Xanthine dehydrogenase/oxidase. Nature of the series: Mixed-type inhibition of bovine xanthine oxidase by Lineweaver-Burk plot method. The settings on record: cattle.
For series [3] the target is unchanged. The series can be described thus: Potency index, ratio of allopurinol IC50 to compound IC50 for bovine xanthine oxidase. The settings on record: cattle.

The structures appear in SMILES notation. Bounds are passed on as bounds.

T1 sequence (P80457 whole entry): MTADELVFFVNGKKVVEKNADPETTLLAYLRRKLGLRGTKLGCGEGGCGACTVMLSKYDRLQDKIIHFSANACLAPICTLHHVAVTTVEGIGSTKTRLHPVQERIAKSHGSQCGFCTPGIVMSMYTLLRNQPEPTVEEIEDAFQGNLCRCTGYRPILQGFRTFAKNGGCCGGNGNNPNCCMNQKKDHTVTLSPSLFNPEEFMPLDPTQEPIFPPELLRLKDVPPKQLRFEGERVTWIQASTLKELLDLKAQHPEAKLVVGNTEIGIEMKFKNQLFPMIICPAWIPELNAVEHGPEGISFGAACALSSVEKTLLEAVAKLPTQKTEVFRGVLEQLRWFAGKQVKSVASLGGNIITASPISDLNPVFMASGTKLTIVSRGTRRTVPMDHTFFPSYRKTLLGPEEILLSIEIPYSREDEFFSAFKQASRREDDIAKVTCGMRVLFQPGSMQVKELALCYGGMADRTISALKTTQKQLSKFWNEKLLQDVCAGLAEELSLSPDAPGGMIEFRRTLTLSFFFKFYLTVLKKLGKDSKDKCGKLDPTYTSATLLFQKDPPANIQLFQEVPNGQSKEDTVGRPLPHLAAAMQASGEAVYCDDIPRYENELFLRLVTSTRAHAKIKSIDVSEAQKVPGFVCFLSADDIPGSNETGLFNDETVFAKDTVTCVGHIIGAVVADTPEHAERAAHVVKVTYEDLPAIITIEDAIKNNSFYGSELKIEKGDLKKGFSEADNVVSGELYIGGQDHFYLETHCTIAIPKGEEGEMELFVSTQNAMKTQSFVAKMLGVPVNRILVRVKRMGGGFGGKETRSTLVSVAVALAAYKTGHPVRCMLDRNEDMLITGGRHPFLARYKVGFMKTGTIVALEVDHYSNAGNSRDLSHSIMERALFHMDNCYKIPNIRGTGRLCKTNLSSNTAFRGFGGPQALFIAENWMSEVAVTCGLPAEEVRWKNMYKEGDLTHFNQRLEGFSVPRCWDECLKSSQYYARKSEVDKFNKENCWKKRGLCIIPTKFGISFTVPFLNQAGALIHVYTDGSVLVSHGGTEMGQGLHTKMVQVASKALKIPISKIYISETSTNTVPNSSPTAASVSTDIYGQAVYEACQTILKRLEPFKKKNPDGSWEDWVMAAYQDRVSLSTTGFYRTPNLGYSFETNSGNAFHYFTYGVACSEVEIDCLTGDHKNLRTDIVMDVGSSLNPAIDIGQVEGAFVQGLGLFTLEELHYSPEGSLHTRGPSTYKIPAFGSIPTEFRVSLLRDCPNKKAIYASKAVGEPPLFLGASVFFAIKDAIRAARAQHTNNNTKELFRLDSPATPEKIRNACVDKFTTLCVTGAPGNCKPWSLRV

A word on the IC50: it is the midpoint of a concentration-inhibition curve. With `CCCCCCCCOc1ccc(-n2cc(C(=O)O)nn2)cc1C#N`, the IC50 in series [1] stood at 0.63 µM.
On the same count and under the same terms, the value for `CC(C)CCOc1ccc(-n2cc(C(=O)O)nn2)cc1C#N` was 1.62 µM.
Same read-out and setting: the figure for `CCC(C)Oc1ccc(-n2cc(C(=O)O)nn2)cc1C#N` (stereo unspecified) is 3.96 µM.
Same read-out and setting: the figure for `N#Cc1ccc(COc2ccc(-n3cc(C(=O)O)nn3)cc2C#N)cc1` is 0.85 µM; for `CCCCCCCOc1ccc(-n2cc(C(=O)O)nn2)cc1C#N` it is 1.47 µM; for `CC(C)Oc1ccc(-n2cc(C(=O)O)nn2)cc1C#N` it is 6.24 µM.
Consider `N#Cc1cccc(COc2ccc(-n3cc(C(=O)O)nn3)cc2C#N)c1`, for which, in series [1], the IC50 turned out to be 3.35 µM.
As to `CCCCCOc1ccc(-n2cc(C(=O)O)nn2)cc1C#N`, in series [1], the IC50 came to 2.85 µM.
Take `N#Cc1cc(-n2cc(C(=O)O)nn2)ccc1OCc1ccc(Cl)cc1`: the IC50 in series [1] came out at 0.94 µM.
Same read-out and setting: the figure for `N#Cc1cc(-n2cc(C(=O)O)nn2)ccc1OCc1ccccc1` is 2.4 µM.
Still for that read-out and setting: the figure for `N#Cc1cc(-n2cc(C(=O)O)nn2)ccc1OC1CCCC1` is 1.08 µM.
On the same count and under the same terms, the figure for `CCCCOc1ccc(-n2cc(C(=O)O)nn2)cc1C#N` is 5.03 µM.
As for `COCCOc1ccc(-n2cc(C(=O)O)nn2)cc1C#N`, the 50% inhibitory concentration (IC50) in series [1] came to 26.1 µM.
Still for that read-out and setting: the value for `COc1ccc(COc2ccc(-n3cc(C(=O)O)nn3)cc2C#N)cc1` was 0.72 µM.
On to `COc1cccc(COc2ccc(-n3cc(C(=O)O)nn3)cc2C#N)c1`, for which the IC50 in series [1] was determined as 0.21 µM. In series [2], the “inhibition (INH)” value was “Active”. Further, the “Ratio IC50” value in series [3] stood at 36.
As to `COc1ccccc1COc1ccc(-n2cc(C(=O)O)nn2)cc1C#N`, the 50% inhibitory concentration (IC50) in series [1] was 0.76 µM.
With `CC(C)COc1ccc(-n2cc(C(=O)O)nn2)cc1C#N`, the concentration for half-maximal inhibition (IC50) in series [1] is 3.27 µM.
On to `CCCCCCOc1ccc(-n2cc(C(=O)O)nn2)cc1C#N`, for which the concentration for half-maximal inhibition (IC50) in series [1] came to 1.5 µM.
The same measure, in the same setting: the value for `CCCOc1ccc(-n2cc(C(=O)O)nn2)cc1C#N` was greater than 30 µM.

For the origin of these results see ChEMBL document CHEMBL4052752, “Synthesis and evaluation of 1-phenyl-1H-1,2,3-triazole-4-carboxylic acid derivatives as xanthine oxidase inhibitors” (Bioorg Med Chem Lett, 2017).
